≈ marks a conversion by molar mass, not a printed value. Entries after “also recorded” stand apart in the source; their conditions may differ.
Experiments:
[1] = tested on: people with type 2 diabetes; conditions: Phase 2, type 2 diabetes, including those with renal impairment; cited from earlier work
type 1 diabetics = conditions: Phase 2, type 1 diabetics, compared with placebo; cited from earlier work
[2] = Dynamic solubility in SGF (simulated gastric fluids), HPLC; format: physicochemical; conditions: for Solubility 1 hour: Media: SGF, equilibrated for 1 hour; for Solubility relative to existing crystalline Form 2: SGF, 1 hour
Experimental: (§1) The HPLC method parameters for solubility test in the present disclosure are as follows:
(§2) Saturated solutions of Form I, Form II, Form III, Form VII and the existing crystalline Form 2 in SGF (Simulated gastric fluids) were prepared. Saturated solutions of Form II, Form III, Form VII, Form VIII and the existing crystalline Form 2 in FaSSIF (Fasted state simulated intestinal fluids, pH=6.5) were prepared. After equilibrated for 1 hour, concentrations of the saturated solutions were measured by High Performance Liquid Chromatography (HPLC).

[3] = Dynamic solubility in FaSSIF (fasted state simulated intestinal fluids, pH=6.5), HPLC; format: physicochemical; conditions: for Solubility relative to existing crystalline Form 2: FaSSIF, 1 hour
Experimental: as §1, §2

[4] = Stability study: mixture of forms stirred in solvent systems with different water activity, residual solid by XRPD; format: physicochemical; conditions: high water activity (high humidity, ≥50% RH)
Text: The mixture of existing crystalline Form 2 disclosed in CN102112483A, Form I and Form II was stirred in several solvent systems with different water activity (aw).
It should be noted that the solvent systems for different water activity (aw) include but not limit to H2O and IPA. The same conclusion could be drawn with this experiment in other solvent systems suitable for the preparation of different water activity (aw).

[5] = Hygroscopicity assessment by dynamic vapor sorption (DVS); format: physicochemical; conditions: 25° C.; for Form change before and after DVS: XRPD
Experimental: Dynamic Vapor Sorption (DVS) is measured via a SMS (Surface Measurement Systems Ltd.) intrinsic DVS. Typical Parameters for DVS test are as follows: Temperature: 25° C. Gas and flow rate: N2, 200 mL/min dm/dt: 0.002%/min Relative Humidity (RH) range: 20% RH-95% RH-0% RH-95% RH Dynamic vapor sorption (DVS) was applied to test hygroscopicity of crystalline Form I with 13.8 mg of sample Form I at 25° C. The weight gains at each relative humidity were recorded in a cycle of 20%-95%-0%-95% RH. […] Dynamic vapor sorption (DVS) was applied to test hygroscopicity of Form VII with 11.5 mg of sample Form VII at 25° C. The weight gains at each relative humidity were recorded in a cycle of 0%-95%-0% RH.

[6] = Stability study: storage at 25° C./60% RH and 40° C./75% RH, XRPD; format: physicochemical; conditions: for Stability on storage: 25° C./60% RH and 40° C./75% RH for 3 months; for Solid Form after storage: 3 months
Experimental: Form I, Form II, Form III and Form VI were stored under different conditions of 25° C./60% RH and 40° C./75% RH for 3 months. XRPD was applied to detect the crystalline forms. The XRPD overlay of Form I, Form II, Form III and Form VI before and after stored under above two conditions were shown in FIG. 44, FIG. 45, FIG. 46 and FIG. 47, respectively.

[7] = Particle size distribution assessment (laser particle size analyzer); format: physicochemical; conditions: for D10 / D50 / D90 / MV (average particle size based on volume): wet method, Isopar G
Text: The result of particle size distribution (PSD) in the present disclosure was acquired by laser particle size analyzer with S3500 model from Microtrac Company. The Microtrac S3500 is equipped with a SDC (Sample Delivery Controller) sampling system. This experiment uses a wet method and the dispersion medium is Isopar G. The method and parameters of the laser particle size analyzer are as follows: [table] Certain amount of Form I, Form V, Form VIII and existing crystalline Form 2 were taken for particle size distribution test, and the results were shown in Table 29.

[8] = Morphology assessment by polarized light microscopy; format: physicochemical
Experimental: The existing crystalline Form 2 and Form I in the present disclosure were tested by polarized light microscopy. The PLM results of the Form 2 and Form I were shown in FIG. 48 and FIG. 49, respectively.

[9] = Mechanical stability assessment: manual grinding, XRPD; format: physicochemical; conditions: ground manually for 5 minutes in mortar
Experimental: Solid sample of Form I, Form VI and the existing crystalline Form 2 were ground manually for 5 minutes in mortar. XRPD was applied to detect the crystalline form.

[10] = Table 27, head prints Media:SGF, text says FaSSIF pH=6.5, equilibrated for 1 hour

Solubility 1 hour [2]	Weight gain under 80% RH ([5]; cycle 20%-95%-0%-95% RH)	Stability on storage [6]	Solid Form after storage ([6]; 25° C./60% RH)	Solid Form after storage ([6]; 40° C./75% RH)	Particle size distribution (description) [7]	D10 [7]	D50 [7]	D90 [7]	MV (average particle size based on volume) [7]	Solubility relative to existing crystalline Form 2 [3]	Solubility 1 hour [3, 10]	Solubility relative to existing crystalline Form 2 [2]	Crystal shape (PLM) [8]	Crystallinity [9]	Mechanical stability [9]	SMILES	Form change before and after DVS ([5]; cycle 20%-95%-0%-95% RH)	Final form [9]	also measured
–	–	–	–	–	–	–	–	–	–	–	–	–	–	–	–	CCOc1ccc(Cc2cc([C@@H]3O[C@H](SC)[C@@H](O)[C@H](O)[C@H]3O)ccc2Cl)cc1 [Sotagliflozin, (2S,3R,4R,5S,6R)-2-(4-chloro-3-(4-ethoxybenzyl)phenyl)-6-(methylthio)tetrahydro-2H-pyran-3,4,5-triol]	–	–	Blood pressure [1]: blood pressure improvements; Blood sugar [1]: lowering of blood sugar; Weight [1]: weight loss; Blood sugar (type 1 diabetics): reduction of blood sugar; Glycaemic variability (type 1 diabetics): improvement in glycaemic variability; Meal-time insulin dose (type 1 diabetics): reduced meal-time insulin dose
0.08 mg/mL (≈ 188 µM)	2.46%	good stability	Form II (the middle	Form II (the bottom	–	–	–	–	–	–	–	–	–	–	–	CCOc1ccc(Cc2cc([C@@H]3O[C@H](SC)[C@@H](O)[C@H](O)[C@H]3O)ccc2Cl)cc1 [Form II, (2S,3R,4R,5S,6R)-2-(4-chloro-3-(4-ethoxybenzyl)phenyl)-6-(methylthio)tetrahydro-2H-pyran-3,4,5-triol]	substantially unchanged; also recorded: No form change	–	solubility at 1 h ([3]; fasted state simulated intestinal fluid (FaSSIF), pH 6.5, fassif, thermodynamic from solid, Table 27, head prints Media:SGF, text says FaSSIF pH=6.5, equilibrated for 1 hour): 0.15 mg/mL (≈ 353 µM); Stability in high water activity environment [4]: more stable than Form 2
–	–	–	–	–	narrow and normal	7.30 μm	36.60 μm	112.4 μm	51.93 μm	1.4 times	0.18 mg/mL (≈ 424 µM)	–	–	–	–	CCOc1ccc(Cc2cc([C@@H]3O[C@H](SC)[C@@H](O)[C@H](O)[C@H]3O)ccc2Cl)cc1 [Form VIII, (2S,3R,4R,5S,6R)-2-(4-chloro-3-(4-ethoxybenzyl)phenyl)-6-(methylthio)tetrahydro-2H-pyran-3,4,5-triol]	–	–	Weight gain under 80% RH ([5]; cycle 0%-95%-0% RH): 0.60%; Form change before and after DVS ([5]; cycle 0%-95%-0% RH): substantially unchanged; also recorded: No form change
0.13 mg/mL (≈ 306 µM)	0.13%	good stability	Form III (the middle	Form III (the bottom	–	–	–	–	–	1.4 times	0.18 mg/mL (≈ 424 µM)	2.2 times	–	–	–	CCOc1ccc(Cc2cc([C@@H]3O[C@H](SC)[C@@H](O)[C@H](O)[C@H]3O)ccc2Cl)cc1 [Form III, (2S,3R,4R,5S,6R)-2-(4-chloro-3-(4-ethoxybenzyl)phenyl)-6-(methylthio)tetrahydro-2H-pyran-3,4,5-triol]	substantially unchanged; also recorded: No form change	–	–
0.15 mg/mL (≈ 353 µM)	–	–	–	–	–	–	–	–	–	1.5 times	0.20 mg/mL (≈ 471 µM)	2.5 times	irregular massive shape	–	–	CCOc1ccc(Cc2cc([C@@H]3O[C@H](SC)[C@@H](O)[C@H](O)[C@H]3O)ccc2Cl)cc1 [Form VII, (2S,3R,4R,5S,6R)-2-(4-chloro-3-(4-ethoxybenzyl)phenyl)-6-(methylthio)tetrahydro-2H-pyran-3,4,5-triol]	–	–	Weight gain under 80% RH ([5]; cycle 0%-95%-0% RH): 1.08%; Form change before and after DVS ([5]; cycle 0%-95%-0% RH): substantially unchanged; also recorded: No form change
–	1.80%	good stability	Form VI (the middle	Form VI (the bottom	–	–	–	–	–	–	–	–	–	Decreased (Slightly	better mechanical stability	CCOc1ccc(Cc2cc([C@@H]3O[C@H](SC)[C@@H](O)[C@H](O)[C@H]3O)ccc2Cl)cc1 [Form VI, (2S,3R,4R,5S,6R)-2-(4-chloro-3-(4-ethoxybenzyl)phenyl)-6-(methylthio)tetrahydro-2H-pyran-3,4,5-triol]	substantially unchanged; also recorded: No form change	no crystalline form change; also recorded: Form VI	–
–	–	–	–	–	narrow and normal	4.38 μm	18.81 μm	72.98 μm	32.70 μm	–	–	–	–	–	–	CCOc1ccc(Cc2cc([C@@H]3O[C@H](SC)[C@@H](O)[C@H](O)[C@H]3O)ccc2Cl)cc1 [Form V, (2S,3R,4R,5S,6R)-2-(4-chloro-3-(4-ethoxybenzyl)phenyl)-6-(methylthio)tetrahydro-2H-pyran-3,4,5-triol]	–	–	–
0.06 mg/mL (≈ 141 µM)	–	–	–	–	wide and bimodal	2.32 μm	45.00 μm	144.4 μm	60.43 μm	–	0.13 mg/mL (≈ 306 µM)	–	needle-like shape	Decreased (Mainly	poor mechanical stability	CCOc1ccc(Cc2cc([C@@H]3O[C@H](SC)[C@@H](O)[C@H](O)[C@H]3O)ccc2Cl)cc1 [Form 2, (2S,3R,4R,5S,6R)-2-(4-chloro-3-(4-ethoxybenzyl)phenyl)-6-(methylthio)tetrahydro-2H-pyran-3,4,5-triol, reference compound]	–	Form 2	–
0.10 mg/mL (≈ 235 µM)	3.55%	good stability	Form I (the middle	Form I (the bottom	narrow and normal	3.34 μm	8.97 μm	31.63 μm	14.48 μm	–	–	1.7 times	rod-like shape	Decreased (Slightly	better mechanical stability	CCOc1ccc(Cc2cc([C@@H]3O[C@H](SC)[C@@H](O)[C@H](O)[C@H]3O)ccc2Cl)cc1 [Form I, (2S,3R,4R,5S,6R)-2-(4-chloro-3-(4-ethoxybenzyl)phenyl)-6-(methylthio)tetrahydro-2H-pyran-3,4,5-triol]	substantially unchanged; also recorded: No form change	no crystalline form change; also recorded: Form I	Stability in high water activity environment [4]: more stable than Form 2

Reference: patent US10626135B2, “Crystal forms of sodium-glucose co-transporter inhibitor, processes for preparation and use thereof” (CRYSTAL PHARMACEUTICAL (SUZHOU) CO., LTD., priority 2016, dated 2020)
